Measurements: patent US20150239889A1, “PYRAZOLOPYRIMIDINE COMPOUND” (MITSUBISHI TANABE PHARMA CORPORATION, priority 2012, published 2015)

Legend:
[1] = target: T1, human HIF-PHD2 (Homo sapiens, UniProt Q9GZT9); assay: HIF-PHD inhibition assay (fluorescence polarization), human HIF-PHD2; type: biochemical; conditions: 2-oxoglutaric acid 3.33 μmol/L
T1 construct: purchased CrystalGenomics Ltd
How it was run: (§1)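 FP readout; enzyme activity = mP post-enzyme − mP pre-enzyme. FAM-labelled probe, ACA spacer.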

[2] = target: T2, human HIF-PHD3 (Homo sapiens, UniProt Q9H6Z9); assay: HIF-PHD inhibition assay (fluorescence polarization), human HIF-PHD3; type: biochemical; conditions: 2-oxoglutaric acid 166 μmol/L
T2 construct: purchased CrystalGenomics Ltd
T2 sequence (Q9H6Z9 whole entry): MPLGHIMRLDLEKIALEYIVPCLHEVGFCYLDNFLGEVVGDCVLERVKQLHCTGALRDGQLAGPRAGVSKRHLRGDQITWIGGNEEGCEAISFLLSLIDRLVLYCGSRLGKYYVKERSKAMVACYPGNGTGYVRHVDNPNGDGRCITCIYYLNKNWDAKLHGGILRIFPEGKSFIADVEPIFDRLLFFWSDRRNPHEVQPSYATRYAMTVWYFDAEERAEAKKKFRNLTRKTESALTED
How it was run: as §1

[3] = tested on: Hep3B cells; assay: EPO production assay (ELISA of culture supernatant); type: cell-based; conditions: Homo sapiens, 3 μmol/L test compound, 48 hours, relative to control (0.1% DMSO), read-out: EPO production stimulation rate with 3 μmol/L test compound
How it was run: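 Values are fold EPO production at 3 μmol/L compound relative to untreated control, quantified by ELISA of culture supernatant. Hep3B cells were exposed for 48 h in MEM containing 0.5% FBS and 0.1% DMSO.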

T1 sequence (Q9GZT9 2-426 limits assumed): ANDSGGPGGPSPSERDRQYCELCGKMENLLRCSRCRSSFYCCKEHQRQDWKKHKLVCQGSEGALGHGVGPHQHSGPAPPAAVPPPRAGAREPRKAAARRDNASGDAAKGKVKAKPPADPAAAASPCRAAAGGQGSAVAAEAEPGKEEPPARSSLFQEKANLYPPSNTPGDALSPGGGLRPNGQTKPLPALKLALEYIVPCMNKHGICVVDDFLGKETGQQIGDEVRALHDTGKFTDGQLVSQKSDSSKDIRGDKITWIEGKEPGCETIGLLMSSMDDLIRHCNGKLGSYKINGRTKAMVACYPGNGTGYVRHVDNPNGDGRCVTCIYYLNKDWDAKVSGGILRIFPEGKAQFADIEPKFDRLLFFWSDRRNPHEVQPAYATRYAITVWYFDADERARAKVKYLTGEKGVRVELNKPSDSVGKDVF

| SMILES | IC50 [1] [nM] | IC50 [2] [nM] | fold induction at 3 µM [3] |
| --- | --- | --- | --- |
| O=C(O)c1cnn(-c2nc(O)c3c(cnn3CCc3ccc(-c4ccccc4)cc3)n2)c1 [Example 130] | 6 | 130 | 19 |
| CC(C)(Cc1ccc2ccccc2c1)Cn1ncc2nc(-n3cc(C(=O)O)cn3)nc(O)c21 [Example 133] | 110 | 370 | 3.9 |
| O=C(O)c1cnn(-c2nc(O)c3c(cnn3CCC(c3ccccc3)c3ccccc3)n2)c1 [Example 134] | 23 | 360 | 25 |
| O=C(O)c1cnn(-c2nc(O)c3c(cnn3C3CCCCC3)n2)c1 [Example 135] | 74 | 380 | 6.1 |
| O=C(O)c1cnn(-c2nc(O)c3c(cnn3CC3CCCCC3)n2)c1 [Example 136] | 31 | 320 | 8.5 |
| O=C(O)c1cnn(-c2nc(O)c3c(cnn3C[C@H]3CC[C@H](C(F)(F)F)CC3)n2)c1 [Example 137] | 20 | 260 | 9.8 |
| O=C(O)c1cnn(-c2nc(O)c3c(cnn3C[C@H]3CC[C@@H](C(F)(F)F)CC3)n2)c1 [Example 138] | 160 | 600 | 2.9 |
| C[C@H]1CC[C@H](Cn2ncc3nc(-n4cc(C(=O)O)cn4)nc(O)c32)CC1 [Example 139] | 30 | 520 | 1.6 |
| CC[C@H]1CC[C@H](Cn2ncc3nc(-n4cc(C(=O)O)cn4)nc(O)c32)CC1 [Example 140] | 14 | 830 | 6.2 |
| CC(C)[C@H]1CC[C@H](Cn2ncc3nc(-n4cc(C(=O)O)cn4)nc(O)c32)CC1 [Example 141] | 14 | 270 | 1.2 |
| CC(C)(C)[C@H]1CC[C@H](Cn2ncc3nc(-n4cc(C(=O)O)cn4)nc(O)c32)CC1 [Example 142] | 25 | 360 | 15 |
| C[C@@H](C1CCCCC1)n1ncc2nc(-n3cc(C(=O)O)cn3)nc(O)c21 [Example 144] | 15 | 1300 | 4.3 |
| O=C(O)c1cnn(-c2nc(O)c3c(cnn3C[C@H]3CC[C@H](Oc4ccccc4F)CC3)n2)c1 [Example 146] | 15 | 300 | 2.6 |
| O=C(O)c1cnn(-c2nc(O)c3c(cnn3C[C@H]3CC[C@@H](Oc4ccccc4F)CC3)n2)c1 [Example 147] | 5.3 | 330 | 4 |
| O=C(O)c1cnn(-c2nc(O)c3c(cnn3C[C@H]3CC[C@H](Oc4cccc(F)c4)CC3)n2)c1 [Example 148] | 10 | 250 | 11 |
| O=C(O)c1cnn(-c2nc(O)c3c(cnn3C[C@H]3CC[C@H](Oc4ccc(F)cc4)CC3)n2)c1 [Example 149] | 17 | 54 | 22 |
| Cc1ccc(O[C@H]2CC[C@H](Cn3ncc4nc(-n5cc(C(=O)O)cn5)nc(O)c43)CC2)cc1 [Example 151] | 13 | 220 | 38 |
| O=C(O)c1cnn(-c2nc(O)c3c(cnn3CCC3CCOCC3)n2)c1 [Example 153] | 59 | 900 | 1.5 |
| O=C(O)c1cnn(-c2nc(O)c3c(cnn3CC3Cc4ccccc4C3)n2)c1 [Example 154] | 29 | 290 | 5.4 |
| O=C(O)c1cnn(-c2nc(O)c3c(cnn3C[C@H]3CC[C@H](c4ccccc4)CC3)n2)c1 [Example 155] | 10 | 70 | 11 |
| O=C(O)c1cnn(-c2nc(O)c3c(cnn3C[C@H]3CC[C@H](c4ccc(Cl)cc4)CC3)n2)c1 [Example 156] | 20 | 160 | 24 |
| CC1(Cn2ncc3nc(-n4cc(C(=O)O)cn4)nc(O)c32)CCCCC1 [Example 157] | 40 | 720 | 4 |
| O=C(O)c1cnn(-c2nc(O)c3c(cnn3CC3CCCCCC3)n2)c1 [Example 158] | 24 | 310 | 1.2 |
| O=C(O)c1cnn(-c2nc(O)c3c(cnn3CC3CCCCCCC3)n2)c1 [Example 159] | 110 | 380 | 4.5 |
| O=C(O)c1cnn(-c2nc(O)c3c(cnn3CCC3CCCCC3)n2)c1 [Example 160] | 71 | 380 | 3.6 |
| O=C(O)c1cnn(-c2nc(O)c3c(cnn3CCCC3CCCCC3)n2)c1 [Example 161] | 31 | 150 | 3.1 |
| CC1(C)C(Cn2ncc3nc(-n4cc(C(=O)O)cn4)nc(O)c32)C1(C)C [Example 162] | 52 | 400 | 18 |
| O=C(O)c1cnn(-c2nc(O)c3c(cnn3CC[C@H]3CC[C@H](c4ccccc4)CC3)n2)c1 [Example 163] | 19 | 120 | 13 |
| O=C(O)c1cnn(-c2nc(O)c3c(cnn3CCC3Cc4ccccc4C3)n2)c1 [Example 164] | 21 | 210 | 8.8 |

Continued, in another order:

| IC50 [1] [nM] | IC50 [2] [nM] | SMILES | fold induction at 3 µM [3] |
| --- | --- | --- | --- |
| 21 | 160 | Cc1ccc2cc(CCn3ncc4nc(-n5cc(C(=O)O)cn5)nc(O)c43)ccc2c1C [Example 129] | 162 |
| 72 | 700 | O=C(O)c1cnn(-c2nc(O)c3c(cnn3CCCc3ccc4ccccc4c3)n2)c1 [Example 131] | 8.6 |
| 67 | 400 | CC(C)(CCn1ncc2nc(-n3cc(C(=O)O)cn3)nc(O)c21)c1ccc2ccccc2c1 [Example 132] | 2.6 |
| 39 | 410 | O=C(O)c1cnn(-c2nc(O)c3c(cnn3C[C@H]3CC[C@@H](Oc4ccc(F)cc4)CC3)n2)c1 [Example 150] | 9 |
| 20 | 140 | O=C(O)c1cnn(-c2nc(O)c3c(cnn3C[C@H]3CC[C@H](Oc4ccc(C(F)(F)F)cc4)CC3)n2)c1 [Example 152] | 20 |
| 12 | 210 | O=C(O)c1cnn(-c2nc(O)c3c(cnn3CCCCc3ccc(Cl)cc3)n2)c1 [Example 165] | 15 |
| 31 | 130 | O=C(O)c1cnn(-c2nc(O)c3c(cnn3CCCCCc3ccccc3)n2)c1 [Example 166] | 8.1 |
| 17 | 140 | O=C(O)c1cnn(-c2nc(O)c3c(cnn3CCCn3ccc4ccccc43)n2)c1 [Example 167] | 2.1 |
| 23 | 200 | O=C(O)c1cnn(-c2nc(O)c3c(cnn3CCCN(c3ccccc3)c3ccccc3)n2)c1 [Example 168] | 66 |
| 19 | 280 | O=C(O)c1cnn(-c2nc(O)c3c(cnn3CC3CCN(c4ccc(C(F)(F)F)cc4)CC3)n2)c1 [Example 170] | 19 |
| 14 | 160 | O=C(O)c1cnn(-c2nc(O)c3c(cnn3CC3CCN(c4ccc(C(F)(F)F)cn4)CC3)n2)c1 [Example 171] | 11 |
| 34 | 250 | O=C(O)c1cnn(-c2nc(O)c3c(cnn3CCC3CCN(c4ccc(C(F)(F)F)cc4)CC3)n2)c1 [Example 172] | 19 |
| 13 | 190 | O=C(O)c1cnn(-c2nc(O)c3c(cnn3CCCOc3ccccc3C(F)(F)F)n2)c1 [Example 173] | 7.7 |
| 32 | 570 | O=C(O)c1cnn(-c2nc(O)c3c(cnn3CCCOc3cccc(C(F)(F)F)c3)n2)c1 [Example 174] | 9.9 |
| 21 | 390 | O=C(O)c1cnn(-c2nc(O)c3c(cnn3CCCOc3ccc(C(F)(F)F)cc3)n2)c1 [Example 175] | 15 |
| 19 | 170 | O=C(O)c1cnn(-c2nc(O)c3c(cnn3CCCOc3ccc(C(F)(F)F)cc3Cl)n2)c1 [Example 176] | 22 |
| 28 | 170 | O=C(O)c1cnn(-c2nc(O)c3c(cnn3CCCOc3ccc(Cl)c(C(F)(F)F)c3)n2)c1 [Example 177] | 9.1 |
| 24 | 570 | CC(C)(C)c1ccc(OCCCn2ncc3nc(-n4cc(C(=O)O)cn4)nc(O)c32)cc1 [Example 178] | 37 |
| 45 | 160 | CC(C)(C)c1cccc(OCCCn2ncc3nc(-n4cc(C(=O)O)cn4)nc(O)c32)c1 [Example 179] | 14 |
| 35 | 220 | O=C(O)c1cnn(-c2nc(O)c3c(cnn3CCCOc3ccc(OCc4ccccc4)c(F)c3)n2)c1 [Example 181] | 34 |
| 22 | 56 | Cc1cc(OCCCn2ncc3nc(-n4cc(C(=O)O)cn4)nc(O)c32)cc(C)c1Cl [Example 182] | 9.1 |
| 63 | 340 | O=C(O)c1cnn(-c2nc(O)c3c(cnn3CCCOc3cc(C(F)(F)F)cc(C(F)(F)F)c3)n2)c1 [Example 183] | 7.5 |
